From patent EP0431076B1, “PENTACYCLIC TRITERPENOID COMPOUNDS AS TOPOISOMERASE INHIBITORS OR CELL DIFFERENTIATION INDUCERS” (RESEARCH TRIANGLE INSTITUTE, priority 1988, dated 1990) come the findings set out here.

The assay deals with T1, DNA topoisomerase I (Homo sapiens, UniProt P11387).
T1 construct: DNA topoisomerase I was purified to homogeneity from chronic human leukemic cells; from tissue; host or cells: chronic human leukemic cells (endogenous enzyme, purified)
T1 sequence (P11387 1-765): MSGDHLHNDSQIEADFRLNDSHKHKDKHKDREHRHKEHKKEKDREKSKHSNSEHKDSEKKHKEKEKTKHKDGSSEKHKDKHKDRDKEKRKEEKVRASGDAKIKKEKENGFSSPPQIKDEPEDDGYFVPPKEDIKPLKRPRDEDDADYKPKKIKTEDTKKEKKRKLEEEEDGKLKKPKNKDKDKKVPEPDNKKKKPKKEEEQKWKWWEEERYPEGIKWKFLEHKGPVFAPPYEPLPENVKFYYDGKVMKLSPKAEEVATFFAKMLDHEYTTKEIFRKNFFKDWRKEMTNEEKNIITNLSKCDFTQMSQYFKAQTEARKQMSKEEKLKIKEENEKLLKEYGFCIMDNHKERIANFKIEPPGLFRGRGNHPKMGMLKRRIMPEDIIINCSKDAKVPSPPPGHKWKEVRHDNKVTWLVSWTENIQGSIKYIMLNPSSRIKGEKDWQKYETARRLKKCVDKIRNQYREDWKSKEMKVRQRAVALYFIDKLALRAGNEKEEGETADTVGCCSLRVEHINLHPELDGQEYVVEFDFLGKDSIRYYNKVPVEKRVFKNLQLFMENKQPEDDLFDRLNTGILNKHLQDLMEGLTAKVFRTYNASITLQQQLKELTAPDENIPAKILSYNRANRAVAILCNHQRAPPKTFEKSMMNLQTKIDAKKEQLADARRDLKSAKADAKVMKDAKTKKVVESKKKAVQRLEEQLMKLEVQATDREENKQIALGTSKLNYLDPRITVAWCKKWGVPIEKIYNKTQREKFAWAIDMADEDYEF
As to the kind of experiment: Topoisomerase I inhibition, supercoiled pBR 322 DNA relaxation assay. It counts as biochemical. The settings on record: gel analysis, Figure 5. From the text: Topoisomerase I inhibitory activity was monitored by using the supercoiled pBR 322 DNA relaxation assay according to a published procedure [Liu et al., Proc. Natl. Acad. Sci., U.S.A., 76, 3487 ([…])].
DNA topoisomerase I was purified to homogeneity from chronic human leukemic cells. Plasmid pBR 322 DNA was purified by phenol deproteinization of cleared lysates followed by CsCl/ethidium isopycnic centrifugation and gel filtration.

On to `CC(=O)O[C@@H]1CC[C@@]2(C)[C@@H](CC[C@]3(C)[C@@H]2CC=C2[C@@H]4CC(C)(C)CC[C@]4(C)CC[C@]23C)[C@@]1(C)C(=O)O` [A-1, α-boswellic acid acetate], for which the “potency in topoisomerase I inhibition relative to standard camptothecin” value (fold potency versus camptothecin) is given as roughly 3 X.
With `CC(=O)O[C@@H]1CC[C@@]2(C)[C@@H](CC[C@]3(C)[C@@H]2CC=C2[C@@H]4[C@@H](C)[C@H](C)CC[C@]4(C)CC[C@]23C)[C@@]1(C)C(=O)O` [B-1, β-boswellic acid acetate], the “potency in topoisomerase I inhibition compared with standard camptothecin (in words)” value is listed as “comparable potency”.
